These molecules were tested on P. falciparum 3D7 growth, pLDH absorbance (assay: blood-stage malaria parasite growth potency – strain 3D7, dose response (AID 2305)).
In the case of `O=C(/C=C/c1cccc(Cl)c1)N1CCC(C(O)CN2CCC3(CC2)CN(C(=O)/C=C/c2cccc(Cl)c2)c2ccccc23)CC1` (configuration not stated), the IC50 is reported as 890 nM.
`Oc1ccc(C=NNC(=S)Nc2cccc3ccccc23)c(O)c1` gave an IC50 of 1040 nM.
`CCN(C)c1cc(C(=O)N[C@@H](Cc2ccccc2)[C@H](O)CNC(C)(C)c2cccc(OC)c2)cc(N2CCCC2=O)c1` was tested, and the IC50 was 70 nM.
`Cc1nc(N)nc(N)c1CCCOc1ccccc1Cl` showed an IC50 of 220 nM.
Molecule `Cc1[nH]c2cc(F)ccc2c1C1=CCN(CCCCC2(C)C(=O)Nc3ccccc32)CC1` (configuration not stated) has an IC50 of 290 nM.
Molecule `CCOC(=O)C1=C(C)N=c2sc(=Cc3cc(Cl)ccc3O)c(=O)n2C1c1ccc2c(c1)OCO2` (configuration not stated) has an IC50 of 710 nM.
For `C[C@H](Cc1ccc(OCCCCCCOc2ccccc2)cc1)NC[C@H](O)c1cccc(Cl)c1`, the IC50 was 70 nM.
For `Cc1cccc(OC(C)C(=O)Nc2cc(C(F)(F)F)ccc2N2CCOCC2)c1` (configuration not stated), the IC50 was 240 nM.
`O=C(/C=C/c1ccc(F)cc1)NC1CCC(CCN2CCc3ccc(-n4cccn4)cc3CC2)CC1` (configuration not stated) showed an IC50 of 1440 nM.
`COc1ccc(NC(=O)/C=C/c2ccccc2Cl)cc1OCCN1CCC(O)(c2ccc(Cl)c(C(F)(F)F)c2)CC1` showed an IC50 of 640 nM.
Molecule `COc1ccc(Cc2c(Cl)nc3nc(N)nc(N)c3c2C)c(OC)c1OC` has an IC50 of 720 nM.
With `CN(CCCCNC(=O)c1ccc(-c2ccccc2)cc1)C1CCc2c(O)cccc2C1` (configuration not stated) the IC50 was 720 nM.
`CNC(=O)c1ccc2[nH]cc(C3CCN(CC4CCN(C(=O)/C=C/c5ccc(Cl)c(Cl)c5)CC4)CC3)c2c1` showed an IC50 of 1520 nM.
Molecule `Cn1nc(-c2ccc(Cl)cc2)c2cc(C(=O)NCCN3CCOCC3)sc21` has an IC50 of 720 nM.
`FC(F)(F)c1cccc(CNCC2CCN(CC3CCCCC3)CC2)c1` showed an IC50 of 400 nM.
In the case of `O=S(=O)(Nc1cccc(CCN2CCC(N3CCCCC3)CC2)c1)c1ccc(Cl)cc1`, the IC50 is reported as 920 nM.
`CC(C)NCc1cccc(-c2cccc(NC(=O)c3cccc(C#N)c3)c2)c1` was tested, and the IC50 was 820 nM.
In the case of `O=C(CC1NC(=O)c2ccccc21)Nc1ccc(-c2ccc(-c3nc4ccc(C(F)(F)F)cc4[nH]3)cc2)cc1` (configuration not stated), the IC50 is reported as 470 nM.
With `CN(C)S(=O)(=O)c1cc(-c2ccc3nccc(-c4cccc(S(N)(=O)=O)c4)c3c2)cnc1N` the IC50 was 250 nM.
Work on `Cc1cc(C)nc(-n2[nH]c(C)c(Cc3ccc(C(C)(C)C)cc3)c2=O)n1` yielded an IC50 of 1010 nM.
For `CCCOc1cc(Cc2cnc(N)nc2N)cc(OC)c1OC`, the IC50 was 1170 nM.
For `Cc1cc(N(C)C)nc(Nc2ccc(NC(=O)COc3ccccc3)cc2)n1`, the IC50 was 1760 nM.
For `CC(C)(CN)c1nc(-c2ccc(Cl)c(O)c2)c(-c2ccncc2)[nH]1`, the IC50 was 760 nM.
Molecule `c1cc(Nc2nc(-c3ccc(-c4csc(Nc5ccncc5)n4)cc3)cs2)ccn1` has an IC50 of 120 nM.
In the case of `COc1ccc(C2CNCc3c2cc(OC)c(OC)c3Cl)cc1` (configuration not stated), the IC50 is reported as 730 nM.
`O=C(N1CCN(c2ccc(C(F)(F)F)cc2[N+](=O)[O-])CC1)C(Cl)(Cl)Cl` was tested, and the IC50 was 710 nM.
`COc1ccc(CC(=O)Nc2ccc(-c3cccc(-c4nc5c(C)cccc5[nH]4)c3)cc2)cc1O` showed an IC50 of 450 nM.
`CC(=O)Nc1ccc(C(=O)Nc2cccc(-c3ccc(-c4nc5ccc(C(F)(F)F)cc5[nH]4)s3)c2)cn1` gave an IC50 of 130 nM.
For `CC(=O)COc1c(C2CCN(CCCCNC(=O)c3ccc(-c4ccc(C(F)(F)F)cc4)cc3)CC2)ccc2c1CCCC2`, the IC50 was 780 nM.
Molecule `O=C(C=Cc1ccc([N+](=O)[O-])cc1)N1CCC(CCN2CCC(c3c[nH]c4ccccc34)CC2)CC1` has an IC50 of 740 nM.
For `CCOC(=O)c1ccc(NC(=O)NCCCC2CCCN(CCCCCNC(=O)/C=C/c3ccc(Cl)c(Cl)c3)C2)cc1` (configuration not stated), the IC50 was 860 nM.
`O=C1[C@H]2C(c3ccc(Cl)c(Cl)c3)N3CC(OCc4ccccc4)CC3(C(=O)O)[C@H]2C(=O)N1c1ccc(Br)cc1` (some centres not stated) gave an IC50 of 340 nM.
Work on `COc1ccc(-c2cnc(N)c(-c3ccc(C(N)=O)cc3)c2)cc1OC` yielded an IC50 of 900 nM.
Work on `CCOc1ccccc1C(=O)N1CCc2cc3nccc(N4CCN5CCC[C@H]5C4)c3cc21` yielded an IC50 of 750 nM.
`CN1CC[C@@H](Oc2cc(CNC(=O)c3ccc(-c4ccc(Cl)cc4)s3)ccc2C(F)(F)F)C1` was tested, and the IC50 was 1030 nM.
In the case of `COC(=O)c1ccc2nc(-c3cc(OC)c(O)c(C(=O)NC4CCN(Cc5ccccc5)CC4)c3)[nH]c2c1`, the IC50 is reported as 1180 nM.
`CCCOc1cc2c(cc1OCCC)C(C=Cc1ccc(Cl)cc1Cl)=NC(C)C2` (configuration not stated) gave an IC50 of 370 nM.
`O=C(/C=C/c1ccc(Cl)c(Cl)c1)NCCCN1CCC(c2c[nH]c3ccccc23)CC1` was tested, and the IC50 was 970 nM.
Work on `CC(C)c1sc(N2CCN(C)CC2)nc1C(=O)NCCc1ccc(Br)cc1` yielded an IC50 of 1130 nM.
With `O=C(c1cc(C(F)(F)F)cc(C(F)(F)F)c1)N1CC[C@H](CCN2CCC3(CC2)C(=O)NCN3c2ccccc2)C[C@H]1Cc1ccc(Cl)c(Cl)c1` the IC50 was 660 nM.
`Cc1cc(NC(=O)Nc2ccc3sccc3c2)c2ccccc2n1` showed an IC50 of 530 nM.
Molecule `FC(F)(F)COc1c(CCNCCCCNCCc2ccc3ccccc3c2OCC(F)(F)F)ccc2ccccc12` has an IC50 of 350 nM.
With `CCNc1cc(C(=O)N[C@@H](Cc2ccccc2)[C@H](O)CN[C@H]2CCc3ccccc32)cc(N2CCCC2=O)c1` the IC50 was 290 nM.
For `CC(C)NCC(O)Cn1c2ccc(Br)cc2c2cc(Br)ccc21` (configuration not stated), the IC50 was 450 nM.
`O=C(Nc1ccc(-c2cccc(-c3nc4ccc(C(F)(F)F)cc4[nH]3)c2)cc1)c1ccc(=O)[nH]n1` was tested, and the IC50 was 1070 nM.
`CN(C)C(C)(C)CN(Cc1ccc(-c2ccc(C(F)(F)F)cc2)cc1)C(=O)Cn1c(CCc2cccc(F)c2F)nc(=O)c2ccccc21` gave an IC50 of 830 nM.
`COc1ccc(S(=O)(=O)N(CCCN2CCN(C)CC2)Cc2csc(-c3ccc(CNCc4ccccc4)cc3)n2)cc1` was tested, and the IC50 was 950 nM.
`COc1ccc(-c2cc(C(=O)N[C@@H](Cc3ccccc3)C(=O)NCCN3CCCCC3)ccc2O)cc1` gave an IC50 of 790 nM.
In the case of `OC[C@H](Nc1nc(C(Oc2ccccc2)c2ccccc2)nc2[nH]ncc12)c1ccccc1` (some centres not stated), the IC50 is reported as 850 nM.
Work on `COc1cc(C(=O)N2CCN(C(C)C)CC2)ccc1CN(C)CCCN1CCN(c2cccc(Cl)c2Cl)CC1` yielded an IC50 of 780 nM.
Work on `COc1ccc(O)c(C(=O)c2cc(C#N)c(=O)n(-c3ccc(Oc4ccccc4)cc3)c2)c1` yielded an IC50 of 740 nM.
Work on `COc1ccc(-c2cccc(NC(=O)c3ccccc3)c2)cc1CN1CCCN(C)CC1` yielded an IC50 of 730 nM.
`Cc1cccc2[nH]c(-c3ccc(-c4cccc(NC(=O)C(C)CN5CCN(C)CC5)c4)s3)nc12` (configuration not stated) gave an IC50 of 750 nM.
`COc1ccc(NC(=O)C2c3ccccc3C(=O)N(C3CCCC3)C2c2cccs2)c(OC)c1` (configuration not stated) showed an IC50 of 1480 nM.
Molecule `O=C(Nc1cccc(CN2CCN(C(=O)c3cccc(F)c3)CC2)c1)c1ccco1` has an IC50 of 770 nM.
`Cc1cc2c(cc1C(F)(F)F)N(C(=O)Nc1ccc(C(=O)NCCN3CCCC3)cc1)CC2` was tested, and the IC50 was 320 nM.
Molecule `CCN(CCCN1CCCCC1)c1cc(C)nc(Nc2ccc(C)cc2Cl)n1` has an IC50 of 340 nM.
`CCCC(C)N(Cc1ccc(C(C)(C)C)cc1)C(=O)c1ccc(OC)cc1` (configuration not stated) was tested, and the IC50 was 110 nM.
Molecule `COc1ccc2nccc(N3CCC(SCCNCc4cc5c(cn4)OCCO5)C3)c2n1` (configuration not stated) has an IC50 of 770 nM.
Work on `CC(Oc1ccc(Cl)cc1)C(=O)Nc1cc(C(F)(F)F)ccc1-n1cncn1` (configuration not stated) yielded an IC50 of 150 nM.
`O=C(NCCc1ccccc1)[C@H](Cc1ccccc1)Nc1ccnc(NCC2CCCCC2)n1` showed an IC50 of 1380 nM.
Work on `Cc1cc(NN=Cc2ccccc2[N+](=O)[O-])c2cccc(C)c2n1` yielded an IC50 of 550 nM.
`NC(Cc1cccc(I)c1)C(=O)NCC1CCCO1` (configuration not stated) was tested, and the IC50 was 890 nM.
With `CCOC(=O)c1cncc(/C=C/c2cc(C)cnc2N)c1` the IC50 was 420 nM.
`N#Cc1ccc(-c2nc3c(N4CCCC4)cccc3n2CCNCc2ccccc2)cc1` was tested, and the IC50 was 590 nM.
With `Cc1cc(O)c(CNC2CCCCC2)cc1C` the IC50 was 1050 nM.
`O=S(=O)(NCCN1CCCC1)c1ccc(-c2ccc(CNCc3ccsc3)cc2)s1` gave an IC50 of 830 nM.
`Cc1[nH]c(C)c(-c2ccc(Oc3cccc(C(F)(F)F)c3)cc2)c(=O)c1Br` showed an IC50 of 10 nM.
`Clc1ccc(-c2csc3ncnc(Cl)c23)cc1` showed an IC50 of 460 nM.
With `Cc1cc(C)c(NC(=O)NC2CCN(CCCCCNC(=O)/C=C/c3ccc(Cl)c(Cl)c3)CC2)c(C)c1` the IC50 was 800 nM.
`Cc1noc(C)c1-c1cccc(CNCc2cccc(-c3ccc(-c4nc5c(C)cccc5[nH]4)s3)c2)c1` was tested, and the IC50 was 210 nM.
`O=C(Nc1ccccc1O)C1CCN(c2ncnc3cc(-c4ccc(F)cc4)sc23)CC1` showed an IC50 of 870 nM.
Molecule `CCc1c(CCNCCCCCCNCCc2ccc(OC)c(OC)c2CC)ccc(OC)c1OC` has an IC50 of 730 nM.
`Nc1nc2c(ncn2OC[C@H](CO)OCP(=O)(O)O)c(=O)[nH]1` gave an IC50 of 340 nM.
With `N=C(N)c1cccc(OCCCOc2cccc(NC(=O)Nc3ccc([N+](=O)[O-])cc3)c2)c1` the IC50 was 860 nM.
In the case of `C=C[C@H]1CN2CC[C@@H]1C[C@H]2[C@H](O)c1cc(-c2ccc(F)cc2)nc2ccc(OC)cc12`, the IC50 is reported as 170 nM.
`O=[N+]([O-])c1ccc2nc(Nc3ccc(Cl)c(Cl)c3)c(Nc3ccc(Cl)c(Cl)c3)nc2c1` gave an IC50 of 790 nM.
Molecule `Cc1cc(N)c2cc(NC(=O)c3cc(C(F)(F)F)cc(C(F)(F)F)c3)ccc2n1` has an IC50 of 90 nM.
`Cn1cc(C(=O)Nc2cccc(-c3cccc(-c4nc5ccccc5[nH]4)c3)c2)n(C)c1=O` showed an IC50 of 710 nM.
`O[C@@H](c1ccccc1)[C@@H]1CN(CCC2C[C@@H]3CC[C@H]2C3)CC[C@@]1(O)c1ccccc1` (some centres not stated) was tested, and the IC50 was 350 nM.
`O=C(Nc1ccc(N2CCCCC2)c(Cl)c1)c1ccco1` gave an IC50 of 410 nM.
Molecule `COc1ccc2nc(C)cc(NN=Cc3ccncc3)c2c1` has an IC50 of 700 nM.
Work on `CN(Cc1cnc2nc(N)nc(N)c2n1)c1ccc(C(=O)NC(CCC(=O)O)C(=O)O)cc1` (configuration not stated) yielded an IC50 of 180 nM.
`CC(C)c1sc(-c2ccc(C(C)(C)C)cc2)nc1C(=O)NCCCN1CCCC1=O` gave an IC50 of 670 nM.
Work on `COc1ccc(-c2nc3ccc(C)nc3nc2-c2ccc(OC)cc2)cc1` yielded an IC50 of 1110 nM.
`Nc1ccc(-c2cnc3[nH]cc(-c4ccc(C(=O)O)cc4)c3c2)cn1` showed an IC50 of 960 nM.
Work on `Cc1[nH]c(CNCCCNc2cc(=O)c3ccccc3[nH]2)c(Br)c1Br` yielded an IC50 of 1040 nM.
For `CN1CCCC1CNS(=O)(=O)c1ccc(C(=O)NCC2CC2)cc1` (configuration not stated), the IC50 was 170 nM.
In the case of `Cc1[nH]c(C)c([N+](=O)[O-])c(=O)c1-c1ccc(Oc2ccc(OC(F)(F)F)cc2)cc1`, the IC50 is reported as 250 nM.
Work on `N=c1n(Cc2ccc(Cl)cc2)c2ccccc2n1CC(O)c1ccc(Cl)c(Cl)c1` (configuration not stated) yielded an IC50 of 680 nM.
`Oc1ccc(CN2CCC(NCc3cccc4ccccc34)CC2)cc1` was tested, and the IC50 was 1200 nM.
Molecule `O=C(c1cc(-c2ccccc2O)on1)N1CCN(C(c2ccccc2)c2ccccc2)CC1` has an IC50 of 340 nM.
Work on `N#Cc1ccc(N(CCNS(=O)(=O)c2cc(Br)c(Cl)s2)Cc2ccccc2C(F)(F)F)cc1C(F)(F)F` yielded an IC50 of 860 nM.
`CC1CN=C(c2cccc(NC(=O)Nc3cccc(C4=NCC(C)N4)c3)c2)N1` (configuration not stated) showed an IC50 of 360 nM.
For `Clc1cccnc1N1CCN(c2ncccc2Cl)CC1`, the IC50 was 150 nM.
Molecule `Cc1cccc(Cn2ccc3c4c(N)nc(N)nc4ccc32)c1` has an IC50 of 10 nM.
`COc1cc2c(cc1OC)CC(NCc1ccc(-c3ccc4nc[nH]c4c3)cc1)C2` gave an IC50 of 850 nM.

Source: PubChem BioAssay AID2305 (GlaxoSmithKline (GSK), 2010)
